Results on one compound are retold here after ChEMBL document CHEMBL4304826, “Lead identification and characterization of hTrkA type 2 inhibitors” (Bioorg Med Chem Lett, 2019).

Data set [1] is described as follows: in vitro. Conditions: dog, liver microsomes.
Data set [2] can be described thus: in vivo. Conditions: Beagle, dog, plasma, iv, 0.2 mg/kg.
Data set [3] can be described thus: in vivo. As to conditions: Beagle, dog, plasma, iv, 0.2 mg/kg. The source holds these as a separate data set.
Data set [4] in a line: in vivo. Conditions: Beagle, dog, plasma, po, 3 mg/kg.
The nature of data set [5]: in vitro. Conditions: dog, MDCK.
Data set [6] can be described thus: in vivo. Conditions: Beagle, dog, plasma, po, 3 mg/kg. The source holds these as a separate data set.
Data set [7] in a line: in vitro. Conditions: dog, MDCK. The source holds these as a separate data set.
A short description of data set [8]: in vivo. As to conditions: Beagle, dog, plasma, iv, 0.2 mg/kg. The source holds these as a separate data set.
Data set [9] in a line: in vivo. As to conditions: Beagle, dog, plasma, po, 3 mg/kg. This is another data set of the same source.
Data set [10] can be described thus: in vivo. Conditions: Beagle, dog, plasma, iv, 0.2 mg/kg. The source holds these as a separate data set.
Data set [11] is described as follows: in vivo. Conditions: Beagle, dog, po, 3 mg/kg.
Data set [12] is described as follows: in vivo. As to conditions: Beagle, dog, plasma, po, 3 mg/kg. This is another data set of the same source.
A short description of data set [13]: in vivo. Conditions: Beagle, dog, plasma, iv, 0.2 mg/kg. This is another data set of the same source.
Data set [14] in a line: in vivo. Conditions: Beagle, dog, plasma, po, 3 mg/kg. The source holds these as a separate data set.

As for `Cc1ccc2nc(CSc3nnc(NC(=O)Nc4cccc(C(F)(F)F)c4)s3)cc(=O)n2c1`, the half-life was 9 min in “in vitro [1]”, 37.8 min in the data set “in vivo [3]” and 39 min in “in vivo [12]”. For the same compound, the AUC(0-inf) in the data set “in vivo [2]” was 755 ng·h/mL; in the data set “in vivo [4]” it was 1790 ng·h/mL. Further, the Papp A→B in “in vitro [5]” turned out to be 0.14 ×10⁻⁶ cm/s. Further, in “in vivo [6]”, the Cmax stood at 1140 ng/mL. The same compound gave a Papp B→A in the data set “in vitro [7]” of 3.73 ×10⁻⁶ cm/s. The same compound displayed a clearance in “in vivo [8]” of 4.43 mL/min/kg. Moreover, the AUC(0-t) in “in vivo [9]” is 1780 ng·h/mL; in the data set “in vivo [13]”, 748 ng·h/mL. The compound further displayed a Vd in the data set “in vivo [10]” of 0.164 L/kg. The same compound showed a bioavailability in the data set “in vivo [11]” of 16%. Further, the Tmax in “in vivo [14]” was 45 min.

For orientation: half-life means how long it takes for the measured level to halve. A low value points to rapid decline. For orientation: AUC(0-inf) means total exposure, with the tail of the curve extrapolated. The Papp A→B is the apparent permeability from the apical to the basolateral side of a cell layer. Broadly, the Cmax is the highest concentration seen after dosing. By Papp B→A is commonly meant how fast a substance crosses the layer from the basolateral side. Broadly, the clearance is a measure of how efficiently the substance is removed, as volume per time. Read a high clearance as efficient removal. One may read the AUC(0-t) as exposure summed from dosing to a finite time, without extrapolation to infinity. Read a high AUC(0-t) as more exposure. What is called Vd is a proportionality between amount in the body and measured concentration, not a real space. Low values mean little distribution into tissue, high ones wide distribution into tissue. A word on the bioavailability: it is the share of a dose that reaches the circulation, judged against a reference dose that is usually intravenous. What is called Tmax is the time at which the peak concentration occurs.
